Residues, ends and D or L forms follow the SMILES beside them. *: point of attachment. X1 = O=C(COC1CC/C=C/CCC1)*
How the values were obtained:
Assay type in all cases: cell-based
[1] = system: HEK293 cells; assay: Assessment of cell permeability of TCO-modified CRISPR suppressors with OG-Tz fluorescent probe; details: suppressor 30 μM 3 h, then OG-Tz 50 μM 2 h; for cellular fluorescence in the Oregon Green channel: confocal microscopy; for cell permeability: microscopy, confirmed by flow cytometry
Procedure: The studies were carried out using the previously reported OG-Tz fluorescent probe. The chemical structure of OG-Tz is shown in Supplementary Fig. S7. OG-Tz was synthesized using the procedure reported by Devaraj and co-workers. The HEK293 cells were cultured in DMEM, containing 10% FBS and 1X Penicillin/Streptomycin, at 37°C, 5% CO2, and 95% humidity. The cells were seeded at a concentration of 1 × 10^5 cells per well in a six-well plate 24 h prior to the experiment. The cells were treated with the TCO-modified CRISPR suppressors (30 μM) for 3 h. Then, the media was replaced, and the cells were treated with OG-Tz (50 μM) for 2h. Afterwards, the cells were treated with trypsin for 5 min, collected by centrifugation at 1000 RPM, and suspended in PBS (1 mL). GFP expression was analyzed by flow cytometry. Data from 10^6 cells were acquired using a FACS Aria III cell sorter equipped with a 488 nm/blue coherent sapphire solid-state laser, 20 mW (BD Biosciences, San Jose, CA, USA). Data analyses were carried out using FlowJo software (Ashland, OR, USA), according to the manufacturer’s instructions. Parameters, such as MFI and the percentages of specific populations, were quantified by histogram analysis.
HEK293 cells were grown to ∼70% confluence in 35 mm MatTek glass bottom dishes in DMEM supplemented with 10% […], penicillin, and streptomycin. The cells were treated with AAA-PNA-TCO, TTT-PNA-TCO, TCO-CPP-RRWQW, or TCO-CPP-RLRWR (30 μM) for 3 h. Afterwards, the cells were treated with OG-Tz (50 μM) for 2 h. Hoechst 33 258 dye was used for nuclear staining. Cellular fluorescence was analyzed using confocal microscopy. Microscopy experiments were carried out using a Zeiss LSM980 confocal microscope.

[2] = system: GFP gene in GFP-expressing HEK293 cells; assay: CRISPR-Cas9 experiments in GFP-expressing HEK293 cells, flow cytometry; details: then suppressor 10 μM 24 h, 48 h growth, duplicate; for inactivation of sgRNA3-(U4Tz1) inside the cells (MFI of GFP): Cas9 mRNA + sgRNA3-(U4Tz1) 48 h; for inactivation of sgRNA3-(U4Tz2) inside the cells (MFI of GFP): Cas9 mRNA + sgRNA3-(U4Tz2) 48 h
Procedure: CRISPR-Cas9 experiments were carried out following the procedure reported by Yin et al. The GFP-expressing HEK293 cells were purchased from GenTarget (cat.# SC001) and cultured in DMEM, containing 10% FBS and 1X Penicillin/Streptomycin, at 37°C, 5% CO2, and 95% humidity. The cells were seeded at a concentration of 1 × 10^5 cells per well in a six-well plate 24 h prior to the experiment. The cells were transfected with Cas9 mRNA (500 ng, Thermo Fisher Scientific), GFP-targeting sgRNAs (30 nM) using lipofectamine (1.5 μL) (Invitrogen™ LMRNA003) for 72 h in Opti-MEM reduced serum media. After 72 h, Opti-MEM was replaced with fresh DMEM, and the cells were grown for an additional 48 h. The cells were treated with trypsin for 5 min, collected by centrifugation at 1000 RPM, and suspended in PBS (1 mL). GFP expression was analyzed by flow cytometry. Data from 10^6 cells were acquired using a FACS Aria III cell sorter equipped with a 488 nm/blue coherent sapphire solid-state laser, 20 mW (BD Biosciences, San Jose, CA, USA). Data analyses were carried out using FlowJo software (Ashland, OR, USA), according to the manufacturer’s instructions. Parameters, such as MFI and the percentages of specific populations, were quantified by histogram analysis.
Ability of TCO-modified CRISPR suppressors to control nuclease activity was examined as follows: GFP-expressing HEK239 cells were co-transfected with Cas9 mRNA (500 ng, Thermo Fisher Scientific), GFP-targeting sgRNAs (30 nM) using lipofectamine (1.5 μL) (Invitrogen™ LMRNA003) for 48 h. Then, AAA-PNA-TCO, TTT-PNA-TCO, TCO-CPP-RRWQW, and TCO-CPP-RLRWR (10 μM) were added to the media. After 24 h of treatment with the TCO-modified CRISPR suppressors, the media were replaced with fresh DMEM, and the cells were allowed to grow for an additional 48 h. The cells were treated with trypsin for 5 min, collected by centrifugation at 1000 RPM, and suspended in PBS (1 mL). GFP expression was analyzed by flow cytometry. Data from 10^6 cells were acquired using a FACS Aria III cell sorter equipped with a 488 nm/blue coherent sapphire solid-state laser, 20 mW (BD Biosciences, San Jose, CA, USA). Data analyses were carried out using FlowJo software (Ashland, OR, USA), according to the manufacturer’s instructions. Parameters, such as MFI and the percentages of specific populations, were quantified by histogram analysis.

[3] = system: VEGFA in HEK293T cells; assay: Western blot analysis of CRISPR-Cas9 experiments targeting VEGFA; details: Cas9 mRNA + sgRNA4-(U4Tz1) or sgRNA4-(U4Tz2), suppressor 10 μM added after 48 h of transfection
Procedure: Total protein lysate was harvested in RIPA buffer, and proteins separated by 10% SDS-PAGE were transferred to a PVDF membrane by using High MW protocol on Biorad Turbo wet transfer. Following transfer, membranes were blocked in 5% milk in PBST for 1 h at room temperature, washed three times in PBS with 0.1% (w/v) Tween 20 (PBS/T) for 10 min each and placed in primary antibody overnight at 4 °C. Primary antibody was rabbit VEGFA polyclonal antibody (1:2000 dilution, Cat.# 19003–1-AP, Proteintech) and α-tubulin monoclonal antibody (1:20 000 dilution, Cat.# 666031–1-Ig, Proteintech) in 5% BSA in PBS/T. Following overnight incubation, membranes were washed three times in PBS/T for 10 min each. Then membranes were incubated in a 1:10 000 dilution of goat anti-rabbit secondary (Jackson), goat-anti-mouse secondary in 5% milk, and PBS/T. Membranes were washed a final 3 times in PBS/T for 10 min each prior to being imaged on the BioRad ChemiDoc by using Thermo Scientific SuperSignal West Pico PLUS Chemiluminescent Substrate (BioRad, Cat.# 34 577).
To assess the new constructs, HEK239T cells were co-transfected with the unmodified sgRNA4, sgRNA4-(U4Tz1), or sgRNA4-(U4Tz2) and commercially available mRNA that encodes the Cas9 gene for 72 h. […] VEGFA expression was once again analyzed by Western blot.

With `CC(C)C[C@H](NC(=O)[C@H](CCCNC(=N)N)NC(=O)COC1CC/C=C/CCC1)C(=O)N[C@@H](CCCNC(=N)N)C(=O)N[C@@H](Cc1c[nH]c2ccccc12)C(=O)N[C@@H](CCCNC(=N)N)C(=O)O` (stereo partly shown) [TCO-CPP-RLRWR] (X1-RLRWR-OH) the “cellular fluorescence in the Oregon Green channel” value [1] was “strongest fluorescence”, the cell permeability [1] was “good cell permeability” and the “inactivation of sgRNA3-(U4Tz1) inside the cells (MFI of GFP)” value [2] was “Analogous results”. For the same compound, the “inactivation of sgRNA3-(U4Tz2) inside the cells (MFI of GFP)” value [2] was “Analogous results” and the “VEGFA expression after addition of suppressor” value [3] was “higher VEGFA expression”.
In the case of `N=C(N)NCCC[C@H](NC(=O)COC1CC/C=C/CCC1)C(=O)N[C@@H](CCCNC(=N)N)C(=O)N[C@@H](Cc1c[nH]c2ccccc12)C(=O)N[C@@H](CCC(N)=O)C(=O)N[C@@H](Cc1c[nH]c2ccccc12)C(=O)O` (stereo partly shown) [TCO-CPP-RRWQW] (X1-RRWQW-OH), the “cellular fluorescence in the Oregon Green channel” value [1] is reported as “strongest fluorescence”, the cell permeability [1] is reported as “good cell permeability” and the “inactivation of sgRNA3-(U4Tz1) inside the cells (MFI of GFP)” value [2] is reported as “able to inactivate”. The “inactivation of sgRNA3-(U4Tz2) inside the cells (MFI of GFP)” value [2] was “able to inactivate” and the “VEGFA expression after addition of suppressor” value [3] was “higher VEGFA expression”.

Source: publication PMC12891993, “Bio-orthogonal chemistry-based strategy to Turn-OFF CRISPR-Cas9 activity in solution and live cells” (NAR Molecular Medicine, 2026)
